One block for each molecule: values may come before it.
System: A549 cells
Assay: in vitro antiproliferation assay, A549 (lung)
Type: cell-based
Description: The IC50 values of various compounds against a various different tumor cell lines were determined using standard in vitro antiproliferation assays. The tumor cell lines tested were as follows: A549 (lung); H1299 (lung), ACHN (kidney/p53 wt), CAKI (renal cell carcinoma), NCI-H460 (lung); HCT116 (colon/p53w0; HELA (cervix/p53 wt), HUH7 (liver/p53 wt), HUVEC (primary endothelial), LNCAP (prostate), HT-29 (colon); MCF-7 (breast); MCF-7 (breast/ER positive), MDA MB435S (breast); MDA MB231 (breast/ER negative), DU145 (prostate); BxPC-3 (pancreatic); SKOV-3 (ovarian); HepG2 (hepatic), NDHF primary normal human dermal fibroblast), SKMEL28 (breast/p53mut), SKMEL5 (breast/p53 wt), U20S (bone) and PC3 (prostate). […] A blank indicates the specified compound was not tested against the specified cell line.

[1] = A549 (lung) cells, antiproliferation
[2] = A549 (lung) cells, in vitro antiproliferation
[3] = Table 5, in vitro antiproliferation, A549 (lung) cells
[4] = Table 7, in vitro antiproliferation, A549 (lung) cells
[5] = IC50 class against A549 (lung) tumor cells

- IC50 [1]: > 20 µM
Compound: Cc1ccc(Nc2ncc(F)c(Nc3ccc(C)cc3)n2)cc1 [compound 998]

- IC50 [2]: ≤ 20 µM
Compound: CN(C)CCOc1ccc(Nc2ncc(F)c(Nc3cccc(O)c3)n2)cc1 [compound 693]

- IC50 [3]: ≤ 20 µM
Compound: O=C(COc1cccc(Nc2ncc(F)c(Nc3ccc4c(c3)OCCO4)n2)c1)NC1CC1 [compound 520]

- IC50 [2]: ≤ 20 µM
Compound: CNC(=O)COc1cccc(Nc2ncc(F)c(Nc3cccc(C(F)(F)F)c3)n2)c1 [compound 770]

- IC50 [4]: > 20 µM
Compound: O=C(c1cc2cc(Nc3ncc(F)c(Nc4cccc(O)c4)n3)ccc2o1)N1CCOCC1 [compound 624]

- IC50 [2]: > 20 µM
Compound: CC(C)Oc1ccc(Nc2ncc(F)c(Nc3ccc(OC(C)C)cc3)n2)cc1 [compound 745]

- IC50 [2]: > 20 µM
Compound: CCOC(=O)COc1ccc(Nc2ncc(F)c(Nc3cccc(O)c3)n2)cc1 [compound 729]

- IC50 [1]: ≤ 20 µM
Compound: CC(C)c1cccc(Nc2nc(Nc3cccc(OCCO)c3)ncc2F)c1 [compound 966]

- IC50 [2]: ≤ 20 µM
Compound: Oc1cccc(Nc2ncc(F)c(Nc3cccc(O)c3)n2)c1 [compound 711]

- IC50 [4]: > 20 µM
Compound: CC(C)Oc1ccc(Nc2nc(Nc3ccc4oc(C(=O)N5CCCC5)cc4c3)ncc2F)cc1 [compound 640]

- IC50 [4]: > 20 µM
Compound: CNC(=O)c1cc2cc(Nc3ncc(F)c(Nc4cccc(C(C)(C)C)c4)n3)ccc2o1 [compound 675]

- IC50 [2]: > 20 µM
Compound: CC(C)(C)OC(=O)COc1ccc(Nc2ncc(F)c(Nc3ccc(OCC(=O)OC(C)(C)C)cc3)n2)cc1 [compound 739]

- IC50 [2]: ≤ 20 µM
Compound: CNC(=O)COc1cccc(Nc2ncc(F)c(Nc3ccc(OC)c(Cl)c3)n2)c1 [compound 788]

- IC50 [1]: > 20 µM
Compound: CNC(=O)COc1cccc(Nc2ncc(F)c(Nc3ccc(OCCC(=O)OC)cc3)n2)c1 [compound 1002]

- IC50 [4]: > 20 µM
Compound: CCOC(=O)c1cc2cc(Nc3ncc(F)c(Nc4ccc(C(C)(C)C)cc4)n3)ccc2[nH]1 [compound 617]

- IC50 [4]: > 20 µM
Compound: COC(=O)c1cc2cc(Nc3ncc(F)c(Nc4ccc(OC(C)C)cc4)n3)ccc2o1 [compound 641]

- IC50 [1]: > 20 µM
Compound: COc1ccc(Nc2nc(Nc3cccc(C(C)(C)C)c3)ncc2F)cc1OC [compound 953]

- IC50 [1]: > 20 µM
Compound: COC(=O)COc1ccc(Nc2ncc(F)c(Nc3ccc(C(C)C)cc3)n2)cc1 [compound 936]

- IC50 [3]: > 20 µM
Compound: O=C(COc1ccc(Nc2ncc(F)c(Nc3ccc4c(c3)OCCO4)n2)cc1)NCCO [compound 474]

- IC50 [1]: ≤ 20 µM
Compound: OCCOc1ccc(Nc2ncc(F)c(Nc3cccc(O)c3)n2)cc1 [compound 934]

- IC50 [2]: ≤ 20 µM
Compound: COc1cccc(Nc2ncc(F)c(Nc3cccc(OC)c3)n2)c1 [compound 708]

- IC50 [2]: > 20 µM
Compound: COC(=O)COc1ccc(Nc2ncc(F)c(Nc3ccc(OCC(=O)OC(C)(C)C)cc3)n2)cc1 [compound 738]

- IC50 [3]: > 20 µM
Compound: Fc1ccc(Nc2ncc(F)c(Nc3ccc4c(c3)OCCO4)n2)cc1 [compound 487]

- IC50 [2]: > 20 µM
Compound: Fc1cnc(Nc2ccc(Cl)c(C(F)(F)F)c2)nc1Nc1ccc(Cl)c(C(F)(F)F)c1 [compound 706]

- IC50 [3]: > 20 µM
Compound: CCCCOc1ccc(Nc2ncc(F)c(Nc3ccc4c(c3)OCCO4)n2)cc1 [compound 479]

- IC50 [3]: > 20 µM
Compound: Fc1ccc(Nc2ncc(F)c(Nc3ccc4c(c3)OCCO4)n2)cc1Cl [compound 485]

- IC50 [5]: > 20 µM
Compound: COc1ccc(Nc2ncc(F)c(Nc3ccc4c(c3)OCCO4)n2)c(OC)c1 [compound 1045]

- IC50 [4]: > 20 µM
Compound: CNC(=O)c1cc2cc(Nc3ncc(F)c(Nc4cccc(O)c4)n3)ccc2o1 [compound 627]

- IC50 [3]: ≤ 20 µM
Compound: OCCOc1ccc(Nc2ncc(F)c(Nc3ccc4c(c3)OCCO4)n2)cc1 [compound 587]

- IC50 [2]: > 20 µM
Compound: Cc1cc(Nc2ncc(F)c(Nc3ccc(O)c(C)c3)n2)ccc1O [compound 731]

- IC50 [4]: > 20 µM
Compound: O=C(O)c1cc2cc(Nc3ncc(F)c(Nc4cccc(O)c4)n3)ccc2[nH]1 [compound 621]

- IC50 [1]: ≤ 20 µM
Compound: Cc1cc(Nc2ncc(F)c(Nc3cccc(O)c3)n2)cc(Cl)c1O [compound 943]

- IC50 [5]: > 20 µM
Compound: C=CCNc1ncc(F)c(Nc2ccc3c(c2)OCCO3)n1 [compound 1037]

- IC50 [2]: > 20 µM
Compound: COc1cc(Nc2ncc(F)c(Nc3cc(OC)c(OC)c(OC)c3)n2)cc(OC)c1OC [compound 743]

- IC50 [2]: > 20 µM
Compound: O=C(O)COc1ccc(Nc2ncc(F)c(Nc3ccc(OCC(=O)O)cc3)n2)cc1 [compound 733]

- IC50 (in vitro antiproliferation, A549 (lung) cells, Table 4, compounds with no designated stereochemistry tested as racemate): ≤ 20 µM
Compound: CC1(C)Oc2ccc(Nc3nc(Nc4cc(Cl)cc(Cl)c4)ncc3F)cc2NC1=O [compound 308]

- IC50 [1]: > 20 µM
Compound: CC(C)(C)c1cccc(Nc2ncc(F)c(Nc3cccc(O)c3)n2)c1 [compound 951]

- IC50 [1]: > 20 µM
Compound: OCCOc1cccc(Nc2nc(Nc3cccc(O)c3)ncc2F)c1 [compound 939]

- IC50 [2]: > 20 µM
Compound: Fc1cnc(Nc2cccc(OC(F)(F)F)c2)nc1Nc1cccc(OC(F)(F)F)c1 [compound 705]

- IC50 [1]: > 20 µM
Compound: OCCOc1cccc(Nc2ncc(F)c(Nc3ccc(CO)c(CO)c3)n2)c1 [compound 967]

- IC50 [1]: > 20 µM
Compound: COC(=O)COc1cccc(Nc2ncc(F)c(Nc3cccc(O)c3)n2)c1 [compound 976]

- IC50 [3]: > 20 µM
Compound: CN(C)C(=O)COc1cccc(Nc2ncc(F)c(Nc3ccc4c(c3)OCCO4)n2)c1 [compound 481]

- IC50 [2]: > 20 µM
Compound: COc1cc(Nc2ncc(F)c(Nc3cccc(O)c3)n2)cc(OC)c1OC [compound 760]

- IC50 [1]: > 20 µM
Compound: COC(=O)COc1cccc(Nc2ncc(F)c(Nc3ccc(OC(C)C)cc3)n2)c1 [compound 977]

- IC50 [1]: > 20 µM
Compound: CC(C)c1ccc(Nc2nc(Nc3cccc(OCCO)c3)ncc2F)cc1 [compound 935]

- IC50 [1]: > 20 µM
Compound: COC(=O)COc1ccc(Nc2nc(Nc3ccc(OCC(N)=O)cc3)ncc2F)cc1 [compound 973]

- IC50 [2]: > 20 µM
Compound: CCOc1ccc(Nc2nc(Nc3cccc(O)c3)ncc2F)cc1 [compound 714]

- IC50 [4]: > 20 µM
Compound: O=C(NCCO)c1cc2cc(Nc3ncc(F)c(Nc4cccc(O)c4)n3)ccc2o1 [compound 630]

- IC50 [3]: > 20 µM
Compound: CCOC(=O)COc1ccc(Nc2ncc(F)c(Nc3ccc4c(c3)OCCO4)n2)cc1 [compound 480]

- IC50 [2]: ≤ 20 µM
Compound: COC(=O)COc1ccc(Nc2ncc(F)c(Nc3ccc(OCC(=O)OC)cc3)n2)cc1 [compound 723]

- IC50 [3]: > 20 µM
Compound: Fc1cnc(Nc2cccc(C(F)(F)F)c2)nc1Nc1ccc2c(c1)OCCO2 [compound 514]

- IC50 [4]: > 20 µM
Compound: CNC(=O)c1cc2cc(Nc3ncc(F)c(Nc4ccc(C(C)(C)C)cc4)n3)ccc2o1 [compound 628]

- IC50 [2]: > 20 µM
Compound: Fc1cc(Nc2ncc(F)c(Nc3ccc(C(F)(F)F)c(F)c3)n2)ccc1C(F)(F)F [compound 703]

- IC50 [4]: > 20 µM
Compound: COC(=O)c1cc2cc(Nc3ncc(F)c(Nc4ccc(C(C)(C)C)cc4)n3)ccc2o1 [compound 619]

- IC50 [4]: > 20 µM
Compound: COC(=O)c1cc2cc(Nc3ncc(F)c(Nc4ccc5c(c4)OCCO5)n3)ccc2o1 [compound 638]

- IC50 [2]: > 20 µM
Compound: O=C(O)COc1ccc(Nc2ncc(F)c(Nc3cccc(Cl)c3)n2)cc1 [compound 736]

- IC50 [3]: > 20 µM
Compound: CNCCOc1cccc(Nc2ncc(F)c(Nc3ccc4c(c3)OCCO4)n2)c1 [compound 498]

- IC50 [3]: > 20 µM
Compound: Oc1cccc(Nc2ncc(F)c(Nc3ccc4c(c3)OCCO4)n2)c1 [compound 482]

- IC50 [1]: > 20 µM
Compound: CCOC(=O)CCOc1ccc(Nc2nc(Nc3cccc(OCC(=O)NC)c3)ncc2F)cc1 [compound 1003]

- IC50 [3]: > 20 µM
Compound: CCCCCCOc1ccc(Nc2ncc(F)c(Nc3ccc4c(c3)OCCO4)n2)cc1 [compound 477]

- IC50 (Homo sapiens, IC50 class against A549 (lung) tumor cells): ≤ 20 µM
Compound: CC(C)(C)c1cc(Nc2nc(Nc3cccc(N4CCOCC4)c3)ncc2F)n[nH]1 [compound 199]

- IC50 [3]: > 20 µM
Compound: O=C(O)COc1ccc(Nc2ncc(F)c(Nc3ccc4c(c3)OCCO4)n2)cc1 [compound 490]

- IC50 [4]: > 20 µM
Compound: O=C(O)c1cc2cc(Nc3ncc(F)c(Nc4ccc5c(c4)OCCO5)n3)ccc2o1 [compound 639]

- IC50 [3]: > 20 µM
Compound: CCc1ccc(Nc2ncc(F)c(Nc3ccc4c(c3)OCCO4)n2)cc1 [compound 489]

- IC50 (Homo sapiens, A549 (lung) cells): ≤ 20 µM
Compound: Cn1nc(-c2ccccc2)cc1Nc1nc(Nc2cccc(-c3ncco3)c2)ncc1F [compound 1161]

- IC50 [3]: ≤ 20 µM
Compound: CCOc1ccc(Nc2ncc(F)c(Nc3ccc4c(c3)OCCO4)n2)cc1 [compound 478]

- IC50 [2]: > 20 µM
Compound: CNC(=O)COc1ccc(Nc2ncc(F)c(Nc3ccc(OCC(=O)O)cc3)n2)cc1 [compound 734]

- IC50 [1]: > 20 µM
Compound: CNC(=O)COc1cccc(Nc2ncc(F)c(Nc3cccc(C(C)C)c3)n2)c1 [compound 965]

- IC50 [1]: > 20 µM
Compound: CCOc1cccc(Nc2ncc(F)c(Nc3cccc(C(C)C)c3)n2)c1 [compound 964]

- IC50 [1]: < 20 µM
Compound: Oc1ccc(Nc2ncc(F)c(Nc3ccc(O)c(C(F)(F)F)c3)n2)cc1C(F)(F)F [compound 996]

- IC50 [4]: ≤ 20 µM
Compound: CCOC(=O)c1cc2cc(Nc3ncc(F)c(Nc4ccc5c(c4)OCCO5)n3)ccc2[nH]1 [compound 618]

- IC50 [3]: ≤ 20 µM
Compound: OCCOc1cccc(Nc2ncc(F)c(Nc3ccc4c(c3)OCCO4)n2)c1 [compound 576]

- IC50 [4]: > 20 µM
Compound: CC(C)(C)c1ccc(Nc2nc(Nc3ccc4oc(C(=O)O)cc4c3)ncc2F)cc1 [compound 622]

- IC50 [2]: > 20 µM
Compound: CCc1ccc(Nc2ncc(F)c(Nc3ccc(CC)cc3)n2)cc1 [compound 722]

- IC50 [2]: ≤ 20 µM
Compound: COc1ccc(Nc2ncc(F)c(Nc3ccc(OC)c(O)c3)n2)cc1O [compound 725]

- IC50 [2]: ≤ 20 µM
Compound: Oc1ccc(Nc2ncc(F)c(Nc3ccc(O)cc3)n2)cc1 [compound 730]

- IC50 [4]: > 20 µM
Compound: COC(=O)c1cc2cc(Nc3ncc(F)c(Nc4cccc(OC(C)C)c4)n3)ccc2o1 [compound 623]

- IC50 [2]: ≤ 20 µM
Compound: CCOc1cccc(Nc2ncc(F)c(Nc3cccc(OCC)c3)n2)c1 [compound 707]

Reference: US8809341B2, “2,4-pyrimidinediamine compounds and uses as anti-proliferative agents” (Rigel Pharmaceuticals, Inc., priority 2003, dated 2014)
